# Assay results taken from US7550469B2, “Heterocyclic amide derivatives and their use as dopamine D3 receptor ligands” (Aventis Pharmaceuticals Inc., priority 2001, dated 2009).
# pKi: −log10 of the molar value. Read-outs that look alike come from different tables or passages of the source.
# Biological target: T1, cloned human dopamine D3 receptors (Homo sapiens, UniProt P35462)
# T1 construct: expressed in transfected cells; membrane homogenate
# Assay: [N-Methyl-3H]Spiroperidol binding to cloned human dopamine D3 receptors (Protocol 1)
# How it was run: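 Radioligand displacement with [N-methyl-3H]spiroperidol used a physiological-salt Tris buffer (0.05 M, pH 7.7; NaCl 120 mM, KCl 5 mM, CaCl2 2 mM, MgCl2 1 mM) and membranes of a high-expressing stable CHO clone carrying human D3. Total ligand concentration came from measured added CPM; 0.1% ascorbic acid was optional for oxidizable compounds.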
# [1] = the 13th table, unit inferred, read-out: D3Ki
# [2] = the 19th table, read-out: D3 Ki
# [3] = the 22nd table, read-out: D3 Ki
# [4] = the 20th table, read-out: D3 Ki
# [5] = the 18th table, read-out: D3 Ki
# T1 sequence (P35462 whole entry): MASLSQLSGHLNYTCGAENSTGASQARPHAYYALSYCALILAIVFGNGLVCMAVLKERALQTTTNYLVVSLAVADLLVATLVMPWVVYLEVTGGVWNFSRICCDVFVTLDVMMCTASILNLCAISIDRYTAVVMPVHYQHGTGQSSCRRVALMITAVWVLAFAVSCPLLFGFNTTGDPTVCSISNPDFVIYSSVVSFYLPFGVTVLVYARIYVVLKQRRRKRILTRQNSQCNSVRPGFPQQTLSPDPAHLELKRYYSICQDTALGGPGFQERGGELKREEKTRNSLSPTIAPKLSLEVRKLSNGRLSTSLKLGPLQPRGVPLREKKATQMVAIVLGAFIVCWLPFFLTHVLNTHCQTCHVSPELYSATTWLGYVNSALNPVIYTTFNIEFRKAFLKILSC
structure (smiles),measurement,setting,value
O=C(NCCCCN1CCCN(c2csc3cc(F)ccc23)CC1)c1ccccc1F [compound 822195],pKi,[1],8.33
COc1ccc(C(=O)NCCCCN2CCCN(c3csc4cc(F)ccc34)CC2)cc1OC [compound 822196],pKi,[1],8.30
COc1cccc(C(=O)NCCCCN2CCCN(c3csc4cc(F)ccc34)CC2)c1 [compound 822197],pKi,[1],8.19
Cc1ccccc1C(=O)NCCCCN1CCCN(c2csc3cc(F)ccc23)CC1 [compound 822199],pKi,[1],8.42
O=C(NCCCCN1CCCN(c2csc3cc(F)ccc23)CC1)c1cnc2ccccc2n1 [compound 822200],pKi,[1],7.97
O=C(NCCCCN1CCCN(c2csc3cc(F)ccc23)CC1)c1cccnc1Cl [compound 822201],pKi,[1],7.82
O=C(Nc1ccc(CN2CCN(c3csc4cc(F)ccc34)CC2)cc1)c1ccccc1F [compound 822207],pKi,[2],6.66
COc1ccc(C(=O)Nc2ccc(CN3CCN(c4csc5cc(F)ccc45)CC3)cc2)cc1OC [compound 822208],pKi,[2],6.74
COc1cccc(C(=O)Nc2ccc(CN3CCN(c4csc5cc(F)ccc45)CC3)cc2)c1 [compound 822209],pKi,[2],6.44
O=C(Nc1ccc(CN2CCN(c3csc4cc(F)ccc34)CC2)cc1)c1ccc(-c2ccccc2)cc1 [compound 822210],pKi,[2],7.40
Cc1ccccc1C(=O)Nc1ccc(CN2CCN(c3csc4cc(F)ccc34)CC2)cc1 [compound 822212],pKi,[2],6.79
O=C(Nc1ccc(CN2CCN(c3csc4cc(F)ccc34)CC2)cc1)c1cccs1 [compound 822213],pKi,[2],7.20
COc1ccccc1C(=O)NCCCCN1CCN(c2nn(C(=O)c3ccccc3OC)c3ccsc23)CC1 [compound 825145],pKi,[3],6.76
Cc1ccccc1C(=O)NCCCCN1CCN(c2nn(C(=O)c3ccccc3C)c3ccsc23)CC1 [compound 825146],pKi,[3],6.73
Cc1ccc(C(=O)NCCCCN2CCN(c3nn(C(=O)c4ccc(C)cc4)c4ccsc34)CC2)cc1 [compound 825147],pKi,[3],7.20
O=C(NCCCCN1CCN(c2nn(C(=O)c3ccc(F)cc3)c3ccsc23)CC1)c1ccc(F)cc1 [compound 825148],pKi,[3],7.44
O=C(NCCCCN1CCN(c2nn(C(=O)c3ccc(C(F)(F)F)cc3)c3ccsc23)CC1)c1ccc(C(F)(F)F)cc1 [compound 825149],pKi,[3],6.79
O=C(NCCCCN1CCN(c2nn(C(=O)c3ccc(F)c(F)c3)c3ccsc23)CC1)c1ccc(F)c(F)c1 [compound 825150],pKi,[3],6.70
O=C(NCCCCN1CCN(c2n[nH]c3ccsc23)CC1)c1ccc(-c2ccccc2)cc1 [compound 825153],pKi,[3],8.07
COc1ccccc1C(=O)NCCCCN1CCN(c2n[nH]c3ccsc23)CC1 [compound 825159],pKi,[3],7.04
Cc1ccccc1C(=O)NCCCCN1CCN(c2n[nH]c3ccsc23)CC1 [compound 825161],pKi,[3],6.61
O=C(NCCCCN1CCN(c2n[nH]c3ccsc23)CC1)c1ccc(F)cc1 [compound 825162],pKi,[3],6.94
O=C(NCCCCN1CCN(c2n[nH]c3ccsc23)CC1)c1ccc(F)c(F)c1 [compound 825163],pKi,[3],6.66
O=C(NCCCCN1CCN(c2nn(C(=O)c3cc4ccccc4s3)c3ccsc23)CC1)c1cc2ccccc2s1 [compound 825164],pKi,[3],7.98
O=C(Nc1cccc(CN2CCN(c3csc4cc(F)ccc34)CC2)c1)c1ccsc1 [compound 825654],pKi,[2],6.61
O=C(Nc1cccc(CN2CCN(c3csc4cc(F)ccc34)CC2)c1)c1ccc2[nH]nnc2c1 [compound 825656],pKi,[2],7.48
COc1cc(OC)cc(C(=O)NCc2ccoc2CN2CCN(c3csc4cc(F)ccc34)CC2)c1 [compound 825837],pKi,[4],6.72
O=C(NCc1ccoc1CN1CCN(c2csc3cc(F)ccc23)CC1)c1cccc(C(F)(F)F)c1 [compound 825841],pKi,[4],6.84
COc1ccccc1C(=O)NCc1ccoc1CN1CCN(c2csc3cc(F)ccc23)CC1 [compound 825842],pKi,[4],6.27
O=C(NCc1ccoc1CN1CCN(c2csc3cc(F)ccc23)CC1)c1cc2ccccc2s1 [compound 825844],pKi,[4],6.22
O=C(NCc1ccoc1CN1CCN(c2csc3cc(F)ccc23)CC1)c1ccc(F)cc1 [compound 825845],pKi,[4],6.69
O=C(NCc1ccoc1CN1CCN(c2csc3cc(F)ccc23)CC1)c1ccc(-c2ccccc2)cc1 [compound 825848],pKi,[4],6.60
O=C(NCc1ccoc1CN1CCN(c2csc3cc(F)ccc23)CC1)c1cccnc1Cl [compound 825853],pKi,[4],6.63
COc1ccc(C(=O)NCC2C(CN3CCN(c4csc5cc(C(F)(F)F)ccc45)CC3)C2(C)C)cc1OC (stereo not drawn) [compound 826272],pKi,read-out: D3K1,7.21
CC1(C)C(CNC(=O)c2ccc(F)cc2)C1CN1CCN(c2csc3cc(C(F)(F)F)ccc23)CC1 (stereo not drawn) [compound 826273],pKi,read-out: D3K1,7.29
CC1(C)C(CNC(=O)c2cccc(F)c2)C1CN1CCN(c2csc3cc(C(F)(F)F)ccc23)CC1 (stereo not drawn) [compound 826274],pKi,read-out: D3K1,7.17
CC1(C)C(CNC(=O)c2ccccc2)C1CN1CCN(c2csc3cc(C(F)(F)F)ccc23)CC1 (stereo not drawn) [compound 826275],pKi,read-out: D3K1,7.04
CC1(C)C(CNC(=O)c2cccs2)C1CN1CCN(c2csc3cc(C(F)(F)F)ccc23)CC1 (stereo not drawn) [compound 826276],pKi,read-out: D3K1,7.24
CC1(C)C(CNC(=O)c2ccc3ccccc3c2)C1CN1CCN(c2csc3cc(C(F)(F)F)ccc23)CC1 (stereo not drawn) [compound 826277],pKi,read-out: D3K1,7.69
CC1(C)C(CNC(=O)c2cccc(C(F)(F)F)c2)C1CN1CCN(c2csc3cc(C(F)(F)F)ccc23)CC1 (stereo not drawn) [compound 826278],pKi,read-out: D3K1,7.06
CC1(C)C(CNC(=O)c2cccc(C#N)c2)C1CN1CCN(c2csc3cc(C(F)(F)F)ccc23)CC1 (stereo not drawn) [compound 826280],pKi,read-out: D3K1,6.94
CC1(C)C(CNC(=O)Cc2ccccc2)C1CN1CCN(c2csc3cc(C(F)(F)F)ccc23)CC1 (stereo not drawn) [compound 826281],pKi,read-out: D3K1,7.14
COc1ccc2[nH]c(C(=O)NC[C@@H]3CCCC[C@H]3CN3CCN(c4csc5cc(C(F)(F)F)ccc45)CC3)cc2c1 [compound 826284],pKi,read-out: D3K1,7.11
O=C(NC[C@@H]1CCCC[C@H]1CN1CCN(c2csc3cc(C(F)(F)F)ccc23)CC1)c1cc2ccccc2[nH]1 [compound 826285],pKi,read-out: D3K1,6.77
O=C(NCC1CCC1CN1CCN(c2csc3cc(C(F)(F)F)ccc23)CC1)c1cc2ccccc2[nH]1 (stereo not drawn) [compound 826290],pKi,read-out: D3K1,7.14
COc1ccc2[nH]c(C(=O)NCC3CCC3CN3CCN(c4csc5cc(C(F)(F)F)ccc45)CC3)cc2c1 (stereo not drawn) [compound 826291],pKi,read-out: D3K1,7.43
O=C(NCC1CCC1CN1CCN(c2csc3cc(C(F)(F)F)ccc23)CC1)c1cc2ccccc2s1 (stereo not drawn) [compound 826292],pKi,read-out: D3K1,6.70
O=C(Cc1ccccc1)NCC1CCC1CN1CCN(c2csc3cc(C(F)(F)F)ccc23)CC1 (stereo not drawn) [compound 826293],pKi,read-out: D3K1,6.62
O=C(NCc1sccc1CN1CCN(c2csc3cc(F)ccc23)CC1)c1cccs1 [compound 826295],pKi,[5],7.34
O=C(NCc1sccc1CN1CCN(c2csc3cc(F)ccc23)CC1)c1cccc(Cl)c1 [compound 826296],pKi,[5],6.97
COc1cc(OC)cc(C(=O)NCc2sccc2CN2CCN(c3csc4cc(F)ccc34)CC2)c1 [compound 826297],pKi,[5],7.51
O=C(NCc1sccc1CN1CCN(c2csc3cc(F)ccc23)CC1)c1ccc(OC(F)(F)F)cc1 [compound 826298],pKi,[5],7.23
O=C(NCc1sccc1CN1CCN(c2csc3cc(F)ccc23)CC1)c1cccc2ccccc12 [compound 826299],pKi,[5],7.02
O=C(NCc1sccc1CN1CCN(c2csc3cc(F)ccc23)CC1)c1ccc2ccccc2c1 [compound 826300],pKi,[5],7.44
O=C(NCc1sccc1CN1CCN(c2csc3cc(F)ccc23)CC1)c1cccc(C(F)(F)F)c1 [compound 826301],pKi,[5],7.03
COc1ccccc1C(=O)NCc1sccc1CN1CCN(c2csc3cc(F)ccc23)CC1 [compound 826302],pKi,[5],7.80
O=C(NCc1sccc1CN1CCN(c2csc3cc(F)ccc23)CC1)c1cccc(F)c1 [compound 826303],pKi,[5],7.19
O=C(NCc1sccc1CN1CCN(c2csc3cc(F)ccc23)CC1)c1ccc(F)cc1 [compound 826304],pKi,[5],7.08
COc1ccc(C(=O)NCc2sccc2CN2CCN(c3csc4cc(F)ccc34)CC2)cc1OC [compound 826305],pKi,[5],7.52
Cc1ccccc1C(=O)NCc1sccc1CN1CCN(c2csc3cc(F)ccc23)CC1 [compound 826306],pKi,[5],7.05
COc1cccc(C(=O)NCc2sccc2CN2CCN(c3csc4cc(F)ccc34)CC2)c1 [compound 826307],pKi,[5],7.33
O=C(NCc1sccc1CN1CCN(c2csc3cc(F)ccc23)CC1)c1ccc(-c2ccccc2)cc1 [compound 826308],pKi,[5],6.69
CC(C)(C)c1ccc(C(=O)NCc2sccc2CN2CCN(c3csc4cc(F)ccc34)CC2)cc1 [compound 826309],pKi,[5],7.20
O=C(NCc1sccc1CN1CCN(c2csc3cc(F)ccc23)CC1)c1cnc2ccccc2n1 [compound 826310],pKi,[5],6.69
O=C(NCc1sccc1CN1CCN(c2csc3cc(F)ccc23)CC1)c1ccc(C(F)(F)F)cc1 [compound 826311],pKi,[5],7.13
O=C(NCc1sccc1CN1CCN(c2csc3cc(F)ccc23)CC1)c1ccncc1 [compound 826312],pKi,[5],7.54
O=C(NCc1sccc1CN1CCN(c2csc3cc(F)ccc23)CC1)c1cccnc1Cl [compound 826313],pKi,[5],6.87
O=C(NCc1sccc1CN1CCN(c2csc3cc(F)ccc23)CC1)c1cccc2cc[nH]c12 [compound 826314],pKi,[5],7.34
CS(=O)(=O)c1sc(C(=O)NCc2sccc2CN2CCN(c3csc4cc(F)ccc34)CC2)c2c1C=CCC2 [compound 826315],pKi,[5],7.51
O=C(NCc1sccc1CN1CCN(c2csc3cc(F)ccc23)CC1)c1csc(-c2cccnc2)n1 [compound 826316],pKi,[5],7.49
O=C(NCc1sccc1CN1CCN(c2csc3cc(F)ccc23)CC1)c1csnn1 [compound 826317],pKi,[5],7.32
O=C(NCc1sccc1CN1CCN(c2csc3cc(F)ccc23)CC1)c1sccc1-n1cccc1 [compound 826318],pKi,[5],7.05
